System: GNS166 cells
Assay: Label-free proteomics differential expression
Assay type: cell-based, human
Method: Proteomic studies were performed by the Proteomics Facility of the CIC bioGUNE by label-free relative quantification on nLC MS/MS. […] In both approaches, the top 20 enriched terms were plotted and the pathways were clustered using divisive hierarchical clustering based on pairwise Jaccard distances.

## C#CCN(Cc1cc2cc(OCCCN3CCCCC3)ccc2n1S(=O)(=O)c1ccccc1)C(=O)CCCCCCC(=O)NO [DDI]
Protein P27105 GN=STOM
  LogFC STOM_HUMAN: 1.045
Protein P27701 GN=CD82
  LogFC CD82_HUMAN: -1.866
Protein P27708
  Direction PYR1_HUMAN: Down
  LogFC PYR1_HUMAN: -0.3818
Protein P28161 GN=GSTM2
  LogFC GSTM2_HUMAN: 1.203
Protein P28340
  Direction DPOD1_HUMAN: Down
  LogFC DPOD1_HUMAN: -0.5649
Protein P28676 GN=GCA
  LogFC GRAN_HUMAN: 2.772
Protein P28906
  Direction CD34_HUMAN: Down
  LogFC CD34_HUMAN: -1.0921
Protein P29144 GN=TPP2
  LogFC TPP2_HUMAN: 0.5124
Protein P29279 GN=CCN2
  LogFC CCN2_HUMAN: 1.704
Protein P29317
  Direction EPHA2_HUMAN: Down
  LogFC EPHA2_HUMAN: -1.4702
Protein P30038 GN=ALDH4A1
  LogFC AL4A1_HUMAN: 0.9924
Protein P30043 GN=BLVRB
  LogFC BLVRB_HUMAN: 1.9711
Protein P30260 GN=CDC27
  LogFC CDC27_HUMAN: -0.6942
Protein P30281 GN=CCND3
  LogFC CCND3_HUMAN: 1.575
Protein P30419
  Direction NMT1_HUMAN: Down
  LogFC NMT1_HUMAN: -0.6586
Protein P30530
  Direction UFO_HUMAN: Down
  LogFC UFO_HUMAN: -2.709
Protein P30740
  Direction ILEU_HUMAN: Down
  LogFC ILEU_HUMAN: -0.3615
Protein P31350
  Direction RIR2_HUMAN: Down
  LogFC RIR2_HUMAN: -2.735
Protein P31689
  Direction DNJA1_HUMAN: Down
  LogFC DNJA1_HUMAN: -0.6634
Protein P31749 GN=AKT1
  LogFC AKT1_HUMAN: -0.2725
Protein P32780
  Direction TF2H1_HUMAN: Down
  LogFC TF2H1_HUMAN: -0.6552
Protein P33981 GN=TTK
  LogFC TTK_HUMAN: -1.092
Protein P36543 GN=ATP6V1E1
  LogFC VATE1_HUMAN: 1.641
Protein P36873 GN=PPP1CC
  LogFC PP1G_HUMAN: 0.989
Protein P36915 GN=GNL1
  LogFC GNL1_HUMAN: 0.9003
Protein P38432
  Direction COIL_HUMAN: Down
  LogFC COIL_HUMAN: -1.999
Protein P38571 GN=LIPA
  LogFC LICH_HUMAN: 4.157
Protein P38606 GN=ATP6V1A
  LogFC VATA_HUMAN: 1.1187
Protein P39060
  Direction COIA1_HUMAN: Down
  LogFC COIA1_HUMAN: -1.248
Protein P40925 GN=MDH1
  LogFC MDHC_HUMAN: 0.224
Protein P41091 GN=EIF2S3
  LogFC IF2G_HUMAN: 0.129
Protein P41214 GN=EIF2D
  LogFC EIF2D_HUMAN: -1.485
Protein P41226
  Direction UBA7_HUMAN: Down
  LogFC UBA7_HUMAN: -1.657
Protein P41236 GN=PPP1R2
  LogFC IPP2_HUMAN: 1.34
Protein P41240 GN=CSK
  LogFC CSK_HUMAN: -0.3935
Protein P42166 GN=TMPO
  LogFC LAP2A_HUMAN: -1.129
Protein P42167 GN=TMPO
  LogFC LAP2B_HUMAN: -0.9256
Protein P42224 GN=STAT1
  LogFC STAT1_HUMAN: 0.5798
Protein P42336 GN=PIK3CA
  LogFC PK3CA_HUMAN: -1.283
Protein P42345 GN=MTOR
  LogFC MTOR_HUMAN: -0.7122
Protein P42695 GN=NCAPD3
  LogFC CNDD3_HUMAN: -2.052
Protein P42765 GN=ACAA2
  LogFC THIM_HUMAN: 1.09
Protein P46013
  Direction KI67_HUMAN: Down
  LogFC KI67_HUMAN: -1.787
Protein P46100 GN=ATRX
  LogFC ATRX_HUMAN: -0.9089
Protein P46199
  Direction IF2M_HUMAN: Down
  LogFC IF2M_HUMAN: -0.8269
Protein P46734 GN=MAP2K3
  LogFC MP2K3_HUMAN: 1.1042
Protein P46977
  Direction STT3A_HUMAN: Down
  LogFC STT3A_HUMAN: -0.5679
Protein P47712 GN=PLA2G4A
  LogFC PA24A_HUMAN: 2.918
Protein P47813 GN=EIF1AX
  LogFC IF1AX_HUMAN: 0.7555
Protein P48960
  Direction AGRE5_HUMAN: Down
  LogFC AGRE5_HUMAN: -1.142
Protein P49427 GN=CDC34
  LogFC UB2R1_HUMAN: 1.5155
Protein P49590
  Direction SYHM_HUMAN: Down
  LogFC SYHM_HUMAN: -1.4939
Protein P49754 GN=VPS41
  LogFC VPS41_HUMAN: 1.216
Protein P49790
  Direction NU153_HUMAN: Down
  LogFC NU153_HUMAN: -1.0035
Protein P49916
  Direction DNLI3_HUMAN: Down
  LogFC DNLI3_HUMAN: -1.6
Protein P50150 GN=GNG4
  LogFC GBG4_HUMAN: 2.6107
Protein P50454
  Direction SERPH_HUMAN: Down
  LogFC SERPH_HUMAN: -1.017
Protein P50748
  Direction KNTC1_HUMAN: Down
  LogFC KNTC1_HUMAN: -0.8446
Protein P50895 GN=BCAM
  LogFC BCAM_HUMAN: 1.4044
Protein P51178 GN=PLCD1
  LogFC PLCD1_HUMAN: 0.5988
Protein P51531 GN=SMARCA2
  LogFC SMCA2_HUMAN: -1.3906
Protein P51532
  Direction SMCA4_HUMAN: Down
  LogFC SMCA4_HUMAN: -1.513
Protein P51580 GN=TPMT
  LogFC TPMT_HUMAN: 1.506
Protein P51617 GN=IRAK1
  LogFC IRAK1_HUMAN: -0.8883
Protein P51674
  Direction GPM6A_HUMAN: Down
  LogFC GPM6A_HUMAN: -2.493
Protein P51692
  Direction STA5B_HUMAN: Down
  LogFC STA5B_HUMAN: -2.183
Protein P51805 GN=PLXNA3
  LogFC PLXA3_HUMAN: 0.8663
Protein P51946
  Direction CCNH_HUMAN: Down
  LogFC CCNH_HUMAN: -0.7175
Protein P51965 GN=UBE2E1
  LogFC UB2E1_HUMAN: -1.604
Protein P52292
  Direction IMA1_HUMAN: Down
  LogFC IMA1_HUMAN: -0.7516
Protein P52799 GN=EFNB2
  LogFC EFNB2_HUMAN: 1.665
Protein P53367 GN=ARFIP1
  LogFC ARFP1_HUMAN: 1.754
Protein P53396
  Direction ACLY_HUMAN: Down
  LogFC ACLY_HUMAN: -0.3852
Protein P53794
  Direction SC5A3_HUMAN: Down
  LogFC SC5A3_HUMAN: -1.548
Protein P53814 GN=SMTN
  LogFC SMTN_HUMAN: -1.694
Protein P54652 GN=HSPA2
  LogFC HSP72_HUMAN: 3.712
Protein P54920 GN=NAPA
  LogFC SNAA_HUMAN: 0.6489
Protein P55010
  Direction IF5_HUMAN: Down
  LogFC IF5_HUMAN: -0.5429
Protein P55011 GN=SLC12A2
  LogFC S12A2_HUMAN: 0.5141
Protein P55060 GN=CSE1L
  LogFC XPO2_HUMAN: -0.4776
Protein P55061 GN=TMBIM6
  LogFC BI1_HUMAN: -0.6524
Protein P56270
  Direction MAZ_HUMAN: Down
  LogFC MAZ_HUMAN: -1.733
Protein P60059
  Direction SC61G_HUMAN: Down

Reference: PMC11971462, “Generation and validation of a novel multitarget small molecule in glioblastoma” (Cell Death & Disease, 2025)
